Read-outs that look alike come from different tables or passages of the source.
Details: storage 40° C., 75% relative humidity
Procedure: The amorphous solid of a reduced glutathione-sodium salt obtained in (1) of Example 1, and the final crystal of a reduced glutathione-sodium salt obtained in Example 1 were compared for hygroscopicity under the following conditions.
Storage conditions: 40° C., 75% relative humidity (adjusted with saturated brine)
Measurement conditions: About 0.3 g of a sample was weighed with a precision balance, and charged into a plastic container. After being stored under the foregoing storage conditions, the sample was weighed, and the percentage of weight change was calculated.
The measured sample weight at each time point is relative to the 100% initial weight at the start of testing. In table 5, the symbol “-” means no measurement.

Compound | weight (%) relative to 100% initial weight (elapsed time 0 h) [%] | weight (%) relative to 100% initial weight (elapsed time 0.25 h) [%] | weight (%) relative to 100% initial weight (elapsed time 2 h) [%] | weight (%) relative to 100% initial weight (elapsed time 4 h) [%] | weight (%) relative to 100% initial weight (elapsed time 10 h) [%] | weight (%) relative to 100% initial weight (elapsed time 20 h) [%] | weight (%) relative to 100% initial weight (elapsed time 48 h) [%] | hygroscopicity / preservation stability compared with the amorphous solid (up to 48 h)
N[C@@H](CCC(=O)N[C@@H](CS)C(=O)NCC(=O)O)C(=O)[O-].[Na+] [Amorphous, reduced glutathione-sodium salt] | 100 | 100.7 | 104.1 | 106.2 | 110.2 | 117.3 | 125.8 | 
N[C@@H](CCC(=O)N[C@@H](CS)C(=O)NCC(=O)O)C(=O)[O-].[Na+] [Crystal, reduced glutathione-sodium salt] | 100 |  | 100.7 |  | 101.9 | 102 | 102.9 | less likely to absorb moisture than the amorphous solid
